Measurements: patent publication US20260028365A1 (BIOGEN MA INC., priority 2022, published 2026)
Where two headings read alike, the source gives them in different places.

Columns and labels:
JH2 domain of human Tyk2 = JH2 domain of human Tyk2 (Homo sapiens (Human), UniProt P29597); assay: JH2 Biochemical Assay (TR-FRET probe displacement); format: binding
JAK2 = JAK2 (Homo sapiens (Human), UniProt O60674); assay: pSTAT5 Cell Assay (MSD, TF1 cells); format: cell-based
Description: Compounds of the disclosure were assessed for their ability to inhibit the JAK2 kinase activity on STAT5 utilizing an MSD-platform plate-based assay format. TF1 cells natively expressing STAT5 and JAK2 were serum-starved to reduce background phosphorylation levels, then cells were treated with compounds of disclosure for 1 hour with a 10-point four-fold dilution series starting at 10 μM. Cells were then stimulated with 30 ng/mL IL-3 for 15 minutes. Cells were then lysed and pSTAT5 levels were quantitated using an MSD plate-based assay with anti-STAT5 antibodies. The data were normalized and the percent activity versus log concentration of compound was fitted with a 4-parameter logistic model to generate a curve and an IC50 value.

JAK1 = JAK1 (Homo sapiens (Human), UniProt P23458); assay: pSTAT3 Cell Assay (MSD, TF1 cells); format: cell-based
Method in brief: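 Serum-starved TF1 cells with endogenous JAK1/STAT3 were pretreated 1 h with compound in a 10-point four-fold dilution series from 10 μM, then stimulated with 30 ng/mL IL-6 for 15 min. pSTAT3 in lysates was quantified by MSD immunoassay, and IC50 came from 4-parameter logistic fits.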

Tyk2 = Tyk2 (Homo sapiens (Human), UniProt P29597); assay: pSTAT4 Cell Assay (MSD, NK92 cells); format: cell-based
[1] = TR-FRET probe displacement, JH2 domain of human Tyk2
[2] = JH2 domain of human Tyk2, TR-FRET probe displacement
[3] = TR-FRET probe displacement, JH2 domain

Chain of Tyk2 (P29597 whole entry, the tested form may be a part): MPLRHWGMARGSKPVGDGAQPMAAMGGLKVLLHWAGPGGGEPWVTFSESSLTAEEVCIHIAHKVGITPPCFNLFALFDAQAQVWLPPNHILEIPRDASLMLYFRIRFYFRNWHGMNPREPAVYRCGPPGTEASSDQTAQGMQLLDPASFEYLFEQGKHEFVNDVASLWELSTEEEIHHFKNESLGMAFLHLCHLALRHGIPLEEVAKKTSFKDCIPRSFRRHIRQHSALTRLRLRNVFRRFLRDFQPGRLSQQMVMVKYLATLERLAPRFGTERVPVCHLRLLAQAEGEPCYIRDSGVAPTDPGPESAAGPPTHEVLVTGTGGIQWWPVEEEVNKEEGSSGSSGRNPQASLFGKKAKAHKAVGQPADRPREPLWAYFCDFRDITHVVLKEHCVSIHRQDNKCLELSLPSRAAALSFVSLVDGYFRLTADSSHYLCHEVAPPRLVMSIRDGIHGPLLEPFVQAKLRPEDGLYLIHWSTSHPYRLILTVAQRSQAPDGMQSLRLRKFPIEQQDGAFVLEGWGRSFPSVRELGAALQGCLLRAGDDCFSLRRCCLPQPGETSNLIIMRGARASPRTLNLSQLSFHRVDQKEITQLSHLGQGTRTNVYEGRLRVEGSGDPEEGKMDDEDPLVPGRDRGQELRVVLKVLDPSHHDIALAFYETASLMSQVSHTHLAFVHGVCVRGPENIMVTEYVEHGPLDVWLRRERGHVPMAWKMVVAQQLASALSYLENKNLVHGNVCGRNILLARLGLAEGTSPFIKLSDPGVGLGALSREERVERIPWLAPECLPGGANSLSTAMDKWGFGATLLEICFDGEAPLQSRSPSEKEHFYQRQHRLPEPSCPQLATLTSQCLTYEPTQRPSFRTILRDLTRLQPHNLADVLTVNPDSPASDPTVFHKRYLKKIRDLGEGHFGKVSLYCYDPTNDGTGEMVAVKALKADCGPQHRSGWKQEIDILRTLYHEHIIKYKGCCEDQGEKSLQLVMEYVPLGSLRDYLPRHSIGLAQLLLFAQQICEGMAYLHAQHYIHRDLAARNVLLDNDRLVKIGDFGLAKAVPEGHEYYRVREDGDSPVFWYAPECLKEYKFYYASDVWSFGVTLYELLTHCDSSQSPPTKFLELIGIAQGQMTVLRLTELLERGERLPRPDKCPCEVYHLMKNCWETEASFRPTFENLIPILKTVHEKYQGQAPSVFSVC
Chain of JAK1 (P23458 whole entry): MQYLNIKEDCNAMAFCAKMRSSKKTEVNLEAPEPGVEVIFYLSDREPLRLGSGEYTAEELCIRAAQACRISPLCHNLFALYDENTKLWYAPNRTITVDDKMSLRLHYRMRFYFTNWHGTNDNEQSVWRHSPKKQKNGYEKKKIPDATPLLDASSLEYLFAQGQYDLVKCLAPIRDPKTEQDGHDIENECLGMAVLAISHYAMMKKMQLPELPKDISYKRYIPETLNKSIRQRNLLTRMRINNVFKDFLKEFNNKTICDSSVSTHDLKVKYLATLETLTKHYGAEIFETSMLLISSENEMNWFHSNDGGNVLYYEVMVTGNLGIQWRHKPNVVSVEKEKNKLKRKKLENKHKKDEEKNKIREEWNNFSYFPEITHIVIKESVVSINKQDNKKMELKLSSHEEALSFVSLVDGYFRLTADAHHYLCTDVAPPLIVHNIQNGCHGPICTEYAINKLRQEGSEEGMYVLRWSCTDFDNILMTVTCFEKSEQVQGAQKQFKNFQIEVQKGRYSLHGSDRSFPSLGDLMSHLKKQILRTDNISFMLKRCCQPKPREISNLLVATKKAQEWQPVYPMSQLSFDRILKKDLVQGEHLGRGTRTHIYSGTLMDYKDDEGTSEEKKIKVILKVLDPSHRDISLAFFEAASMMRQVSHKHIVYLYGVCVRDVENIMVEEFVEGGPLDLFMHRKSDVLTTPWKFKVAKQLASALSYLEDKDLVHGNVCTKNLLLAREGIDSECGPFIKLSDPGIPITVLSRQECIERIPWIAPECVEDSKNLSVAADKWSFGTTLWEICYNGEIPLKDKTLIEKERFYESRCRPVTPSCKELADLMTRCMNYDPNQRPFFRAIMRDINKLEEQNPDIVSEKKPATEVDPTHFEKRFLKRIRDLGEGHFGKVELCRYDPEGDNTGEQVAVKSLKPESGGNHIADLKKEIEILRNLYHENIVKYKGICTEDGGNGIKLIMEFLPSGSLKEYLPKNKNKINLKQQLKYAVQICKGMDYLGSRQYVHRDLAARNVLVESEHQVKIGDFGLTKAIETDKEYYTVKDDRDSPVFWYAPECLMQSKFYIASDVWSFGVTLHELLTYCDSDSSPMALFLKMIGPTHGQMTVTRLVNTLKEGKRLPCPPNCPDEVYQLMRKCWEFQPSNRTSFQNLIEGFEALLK
Chain of JAK2 (O60674 whole entry): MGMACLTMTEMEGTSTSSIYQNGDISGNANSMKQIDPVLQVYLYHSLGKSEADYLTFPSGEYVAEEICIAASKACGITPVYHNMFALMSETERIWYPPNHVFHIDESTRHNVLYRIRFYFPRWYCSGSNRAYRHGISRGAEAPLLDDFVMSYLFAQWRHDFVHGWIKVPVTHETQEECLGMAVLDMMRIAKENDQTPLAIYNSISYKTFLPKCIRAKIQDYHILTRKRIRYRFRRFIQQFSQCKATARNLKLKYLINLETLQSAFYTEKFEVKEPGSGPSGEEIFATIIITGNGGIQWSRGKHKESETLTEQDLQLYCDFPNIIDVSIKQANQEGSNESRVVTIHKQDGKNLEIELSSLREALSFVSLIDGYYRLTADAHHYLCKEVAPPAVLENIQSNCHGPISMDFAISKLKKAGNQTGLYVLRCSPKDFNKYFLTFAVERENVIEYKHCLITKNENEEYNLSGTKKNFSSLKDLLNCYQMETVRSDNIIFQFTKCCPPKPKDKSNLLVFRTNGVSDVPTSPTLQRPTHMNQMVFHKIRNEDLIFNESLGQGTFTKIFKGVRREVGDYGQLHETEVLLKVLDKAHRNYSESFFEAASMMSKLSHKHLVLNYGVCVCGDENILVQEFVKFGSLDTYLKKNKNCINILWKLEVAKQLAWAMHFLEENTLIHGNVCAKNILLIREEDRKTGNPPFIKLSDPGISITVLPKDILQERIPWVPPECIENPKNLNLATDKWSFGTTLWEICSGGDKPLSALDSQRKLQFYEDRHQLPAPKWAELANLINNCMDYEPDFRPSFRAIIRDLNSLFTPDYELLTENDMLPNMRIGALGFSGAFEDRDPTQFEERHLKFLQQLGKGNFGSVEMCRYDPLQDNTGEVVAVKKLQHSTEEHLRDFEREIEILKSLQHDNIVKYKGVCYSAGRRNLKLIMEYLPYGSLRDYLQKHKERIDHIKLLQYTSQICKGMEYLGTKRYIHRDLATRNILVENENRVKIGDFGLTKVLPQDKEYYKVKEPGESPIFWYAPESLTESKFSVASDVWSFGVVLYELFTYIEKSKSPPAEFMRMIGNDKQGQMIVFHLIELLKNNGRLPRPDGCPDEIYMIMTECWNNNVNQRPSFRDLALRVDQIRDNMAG
Chain of JH2 domain of human Tyk2 (P29597 575-876): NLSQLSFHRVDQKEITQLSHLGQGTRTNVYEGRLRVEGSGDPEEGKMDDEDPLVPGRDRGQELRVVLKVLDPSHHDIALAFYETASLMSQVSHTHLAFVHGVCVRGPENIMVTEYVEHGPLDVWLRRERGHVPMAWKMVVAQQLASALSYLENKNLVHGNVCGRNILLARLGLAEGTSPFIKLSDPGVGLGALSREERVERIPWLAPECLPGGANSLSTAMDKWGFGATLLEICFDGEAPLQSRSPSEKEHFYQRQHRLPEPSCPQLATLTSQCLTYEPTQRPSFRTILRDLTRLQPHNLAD

Row | Structure (SMILES) | IC50 (JH2 domain of human Tyk2; [1]) [nM] | IC50 (JAK2; IL-3 stimulation, MSD) [nM] | IC50 (JAK1; IL-6 stimulation, MSD) [nM] | IC50 (Tyk2; MSD) [nM] | IC50 (JH2 domain of human Tyk2; [2]) [nM] | IC50 (JAK2; IL-3 stimulated, MSD) [nM] | IC50 (JAK1; IL-6 stimulated, MSD) [nM] | IC50 (JH2 domain of human Tyk2; [3]) [nM] | IC50 (JAK2; IL-3 stimulated) [nM] | IC50 (JAK1; IL-6 stimulated) [nM] | IC50 (Tyk2) [nM]
1 | CC(=O)Nc1cc(Nc2ccnc(C(C)(F)F)n2)c(-c2ccc(C#N)cn2)cn1 [Example 146, N-(5-cyano-4′-((2-(1,1-difluoroethyl)pyrimidin-4-yl)amino)-[2,3′-bipyridin]-6′-yl)acetamide] | ≤ 10 | ≥ 1000 | ≥ 1000 | ≤ 10 |  |  |  |  |  |  | 
2 | COCCOc1cc(Nc2cc(NC(C)=O)ncc2OC)nc(C(C)(F)F)n1 [Example 37, N-(4-((2-(1,1-difluoroethyl)-6-(2-methoxyethoxy)pyrimidin-4-yl)amino)-5-methoxypyridin-2-yl)acetamide] | ≤ 10 | ≥ 1000 | ≥ 1000 | 100 to 1000 |  |  |  |  |  |  | 
3 | CC(=O)Nc1cc(Nc2cc(C)nc(C(C)(F)F)n2)c(-c2ccc(F)cn2)cn1 [Example 594, N-(4′-((2-(1,1-difluoroethyl)-6-methylpyrimidin-4-yl)amino)-5-fluorO[2,3′-bipyridin]-6′-yl)acetamide] |  |  |  | ≤ 10 | ≤ 10 | ≥ 1000 | ≥ 1000 |  |  |  | 
4 | CC(=O)Nc1cc(Nc2cc(C)nc(C(C)(F)F)n2)c(-c2cc3n(n2)CCN(C)C3)cn1 [Example 226, N-(4-((2-(1,1-difluoroethyl)-6-methylpyrimidin-4-yl)amino)-5-(5-methyl-4,5,6,7-tetrahydropyrazolo[1,5-a]pyrazin-2-yl)pyridin-2-yl)acetamide] | ≤ 10 | ≥ 1000 | 100 to 1000 | ≤ 10 |  |  |  |  |  |  | 
5 | CC(=O)Nc1cc(Nc2cc(C)nc(C34COC(C3)C4)n2)c(-c2ccn(C)n2)cn1 [Example 552, N-(4-((2-(2-oxabicyclo[2.1.1]hexan-4-yl)-6-methylpyrimidin-4-yl)amino)-5-(1-methyl-1H-pyrazol-3-yl)pyridin-2-yl)acetamide] |  |  |  | 10 to 100 | ≤ 10 | ≥ 1000 | ≥ 1000 |  |  |  | 
6 | CNC(=O)Nc1cc(Nc2cc(C)nc(C(C)(F)F)n2)c(-c2ccn(C)n2)cn1 [Example 289, 1-(4-((2-(1,1-difluoroethyl)-6-methylpyrimidin-4-yl)amino)-5-(1-methyl-1H-pyrazol-3-yl)pyridin-2-yl)-3-methylurea] | ≤ 10 | ≥ 1000 | ≥ 1000 | ≤ 10 |  |  |  |  |  |  | 
7 | CC(=O)Nc1cc(Nc2ccnc(C(C)(C)F)n2)c(-c2ccnc(C)n2)cn1 [Example 175, N-(4-((2-(2-fluoropropan-2-yl)pyrimidin-4-yl)amino)-5-(2-methylpyrimidin-4-yl)pyridin-2-yl)acetamide] | ≤ 10 | ≥ 1000 | ≥ 1000 | ≤ 10 |  |  |  |  |  |  | 
8 | CO[C@H]1C[C@H](Oc2cnc(NC(C)=O)cc2Nc2cc(OC3CC3)nc(C(C)(F)F)n2)C1 [Example 350, N-(4-((6-cyclopropoxy-2-(1,1-difluoroethyl)pyrimidin-4-yl)amino)-5-((1r,3r)-3-methoxycyclobutoxy)pyridin-2-yl)acetamide] | ≤ 10 | ≥ 1000 | ≥ 1000 | 10 to 100 |  |  |  |  |  |  | 
9 | CC(=O)Nc1cc(Nc2cc(C)nc(C(C)(F)F)n2)c(C2CC2)cn1 [Example 29, N-(5-cyclopropyl-4-((2-(1,1-difluoroethyl)-6-methylpyrimidin-4-yl)amino)pyridin-2-yl)acetamide] | ≤ 10 | ≥ 1000 | ≥ 1000 | 100 to 1000 |  |  |  |  |  |  | 
10 | COc1cc(Nc2cc(NC(C)=O)ncc2-c2ccn(C)n2)nc(C(C)(F)F)n1 [Example 50, N-(4-((2-(1,1-difluoroethyl)-6-methoxypyrimidin-4-yl)amino)-5-(1-methyl-1H-pyrazol-3-yl)pyridin-2-yl)acetamide] | ≤ 10 | ≥ 1000 | ≥ 1000 | ≤ 10 |  |  |  |  |  |  | 
11 | COCc1ccc(-c2cnc(NC(C)=O)cc2Nc2cc(C)nc(C34COC(C3)C4)n2)nc1 [Example 565, N-(4′-((2-(2-oxabicyclo[2.1.1]hexan-4-yl)-6-methylpyrimidin-4-yl)amino)-5-(methoxymethyl)-[2,3′-bipyridin]-6′-yl)acetamide] |  |  |  | ≤ 10 | ≤ 10 | ≥ 1000 | ≥ 1000 |  |  |  | 
12 | CCc1cc(Nc2cc(NC(N)=O)ncc2-c2cnccn2)nc(C(C)(F)F)n1 [Example 920] |  |  |  |  |  |  |  | ≤ 10 | ≥ 1000 | ≥ 1000 | ≤ 10
13 | CC(=O)Nc1cc(Nc2cc(C)nc(C(C)(F)F)n2)c(-c2cocn2)cn1 [Example 596, N-(4-((2-(1,1-difluoroethyl)-6-methylpyrimidin-4-yl)amino)-5-(oxazol-4-yl)pyridin-2-yl)acetamide] |  |  |  | ≤ 10 | ≤ 10 | ≥ 1000 | ≥ 1000 |  |  |  | 
14 | COc1cnc(NC(C)=O)cc1Nc1cc(O[C@H]2C[C@H](OC)C2)nc(C(C)(F)F)n1 [Example 19, N-(4-((2-(1,1-difluoroethyl)-6-((1r,3r)-3-methoxycyclobutoxy)pyrimidin-4-yl)amino)-5-methoxypyridin-2-yl)acetamide] | ≤ 10 | ≥ 1000 | ≥ 1000 | 10 to 100 |  |  |  |  |  |  | 
15 | COCc1cc(-c2cnc(NC(C)=O)cc2Nc2cc(C)nc(C(C)(F)F)n2)nn1C [Example 757, N-(4-((2-(1,1-difluoroethyl)-6-methylpyrimidin-4-yl)amino)-5-(5-(methoxymethyl)-1-methyl-1H-pyrazol-3-yl)pyridin-2-yl)acetamide] |  |  |  |  |  |  |  | ≤ 10 | ≥ 1000 | 100 to 1000 | ≤ 10
16 | CC(=O)Nc1cc(Nc2ccnc(C(C)(F)F)n2)c(-c2cc(C)ncn2)cn1 [Example 201, N-(4-((2-(1,1-difluoroethyl)pyrimidin-4-yl)amino)-5-(6-methylpyrimidin-4-yl)pyridin-2-yl)acetamide] | ≤ 10 | ≥ 1000 | ≥ 1000 | 10 to 100 |  |  |  |  |  |  | 
17 | CC(=O)Nc1cc(Nc2cc(C)nc(C(C)(F)F)n2)c(-c2nc3c(s2)CCN(C)C3)cn1 [Example 237, N-(4-((2-(1,1-difluoroethyl)-6-methylpyrimidin-4-yl)amino)-5-(5-methyl-4,5,6,7-tetrahydrothiazolo[4,5-c]pyridin-2-yl)pyridin-2-yl)acetamide] | ≤ 10 | ≥ 1000 | ≥ 1000 | ≤ 10 |  |  |  |  |  |  | 
18 | [2H]C([2H])([2H])n1cc(-c2cc(Nc3cc(NC(C)=O)ncc3OCC)nc(C(C)(F)F)n2)cn1 [Example 314, N-(4-((2-(1,1-difluoroethyl)-6-(1-(methyl-d3)-1H-pyrazol-4-yl)pyrimidin-4-yl)amino)-5-ethoxypyridin-2-yl)acetamide] | ≤ 10 | ≥ 1000 | ≥ 1000 | ≤ 10 |  |  |  |  |  |  | 
19 | CCc1cc(Nc2cc(NC(C)=O)ncc2OCCCOC)nc(C(C)(F)F)n1 [Example 69, N-(4-((2-(1,1-difluoroethyl)-6-ethylpyrimidin-4-yl)amino)-5-(3-methoxypropoxy)pyridin-2-yl)acetamide] | ≤ 10 | ≥ 1000 | ≥ 1000 | 10 to 100 |  |  |  |  |  |  | 
20 | CCOc1cnc(NC(C)=O)cc1Nc1cc(OCCOC)nc(C(C)(F)F)n1 [Example 32, N-(4-((2-(1,1-difluoroethyl)-6-(2-methoxyethoxy)pyrimidin-4-yl)amino)-5-ethoxypyridin-2-yl)acetamide] | ≤ 10 | ≥ 1000 | ≥ 1000 | 10 to 100 |  |  |  |  |  |  | 
21 | CCc1cc(Nc2cc(NC(=O)OC)ncc2OCCOC)nc(C(C)(F)F)n1 [Example 87, methyl (4-((2-(1,1-difluoroethyl)-6-ethylpyrimidin-4-yl)amino)-5-(2-methoxyethoxy)pyridin-2-yl)carbamate] | ≤ 10 | ≥ 1000 | ≥ 1000 | ≤ 10 |  |  |  |  |  |  | 
22 | CC(=O)Nc1cc(Nc2cc(C)nc(C(C)(F)F)n2)c(OC[C@H]2CCCO2)cn1 (single isomer, unassigned) [Example 294, (R)-N-(4-((2-(1,1-difluoroethyl)-6-methylpyrimidin-4-yl)amino)-5-((tetrahydrofuran-2-yl)methoxy)pyridin-2-yl)acetamide or (S)-N-(4-((2-(1,1-difluoroethyl)-6-methylpyrimidin-4-yl)amino)-5-((tetrahydrofuran-2-yl)methoxy)pyridin-2-yl)acetamide] | ≤ 10 | ≥ 1000 | ≥ 1000 | ≤ 10 |  |  |  |  |  |  | 
23 | COCCOc1cnc(NC(C)=O)cc1Nc1cc(C)nc(C(C)(C)F)n1 [Example 406, N-(4-((2-(2-fluoropropan-2-yl)-6-methylpyrimidin-4-yl)amino)-5-(2-methoxyethoxy)pyridin-2-yl)acetamide] |  |  |  | ≤ 10 | ≤ 10 | ≥ 1000 | ≥ 1000 |  |  |  | 
24 | COc1cnc(NC(C)=O)cc1Nc1cc(C(C)C)nc(C(C)(F)F)n1 [Example 52, N-(4-((2-(1,1-difluoroethyl)-6-isopropylpyrimidin-4-yl)amino)-5-methoxypyridin-2-yl)acetamide] | ≤ 10 | ≥ 1000 | ≥ 1000 | 10 to 100 |  |  |  |  |  |  | 
